# Data reported in patent publication US20260116868A1 (Arcus Biosciences, Inc., priority 2023, published 2026).
# Like-named read-outs stand apart in the source and are kept apart here.
# How the values were obtained:
# Cbl-b = target: T1, Cbl-b (Homo sapiens, UniProt Q13191); assay: Cbl-b probe displacement HTRF binding assay; settings: 0.4 nM Cbl-b, 150 nM BODIPY probe
# T1 construct: biotin (biotinylated protein)
# In short: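 Compound competes with BODIPY probe (150 nM) for biotinylated Cbl-b (0.4 nM) in HEPES/NaCl/Triton/TCEP/BSA buffer; 60 min preincubation, 15 min with probe, room temperature. Tb-streptavidin HTRF read; % displacement vs DMSO and no-protein controls, IC50 from four-parameter fit.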
# Jurkat cells = assay: IL-2 secretion assay in Jurkat cells activated with CD3/CD28 T Cell Activator; assay type: cell-based; settings: Homo sapiens, 24 h, read-out: IL-2 Secretion (EC50)
# Procedure: Certain compounds were also evaluated in an IL-2 secretion assay. On the day of the assay, a 16 point, 1:2 master serial dilution of each compound was prepared in Opti-MEM to span a final concentration range of 10 μM to 300 pM. Assays were set up in CORNING® tissue culture-treated 384-well microplates containing 60 nL of each dilution. Jurkat cells grown in RPMI-1640 supplemented with 10% FBS, 1% Glutamax, and 1% Pen/Strep were collected, resuspended in Opti-MEM. 50,000 cells/well and added to the compound plates. After a short spin (1200 rpm for 1 min), the plates were incubated at 37° C. for 1 hour. The cells were activated by adding 15 μL of IMMUNOCULT™ Human CD3/CD28 T Cell Activator (STEMCELL Technologies) diluted in Opti-MEM. After 24 h of incubation at 37° C., aliquots of culture supernatants were transferred to OptiPlate-384 (PerkinElmer) microplates. The level of IL-2 secretion in the supernatants was then determined using the IL-2 (human) AlphaLISA Detection Kit (PerkinElmer) according to the manufacturer's recommendations. The AlphaLISA signal was measured using an EnVision plate reader (PerkinElmer). EC50 values were determined by fitting the data to a standard 4-parameter logistic equation. See Table 7 for data for select compounds (IL-2 Secretion (EC50)).
# [1] = Jurkat cells, CD3/CD28 T Cell Activator, IL-2 AlphaLISA
# T1 sequence (Q13191 whole entry, species assumed): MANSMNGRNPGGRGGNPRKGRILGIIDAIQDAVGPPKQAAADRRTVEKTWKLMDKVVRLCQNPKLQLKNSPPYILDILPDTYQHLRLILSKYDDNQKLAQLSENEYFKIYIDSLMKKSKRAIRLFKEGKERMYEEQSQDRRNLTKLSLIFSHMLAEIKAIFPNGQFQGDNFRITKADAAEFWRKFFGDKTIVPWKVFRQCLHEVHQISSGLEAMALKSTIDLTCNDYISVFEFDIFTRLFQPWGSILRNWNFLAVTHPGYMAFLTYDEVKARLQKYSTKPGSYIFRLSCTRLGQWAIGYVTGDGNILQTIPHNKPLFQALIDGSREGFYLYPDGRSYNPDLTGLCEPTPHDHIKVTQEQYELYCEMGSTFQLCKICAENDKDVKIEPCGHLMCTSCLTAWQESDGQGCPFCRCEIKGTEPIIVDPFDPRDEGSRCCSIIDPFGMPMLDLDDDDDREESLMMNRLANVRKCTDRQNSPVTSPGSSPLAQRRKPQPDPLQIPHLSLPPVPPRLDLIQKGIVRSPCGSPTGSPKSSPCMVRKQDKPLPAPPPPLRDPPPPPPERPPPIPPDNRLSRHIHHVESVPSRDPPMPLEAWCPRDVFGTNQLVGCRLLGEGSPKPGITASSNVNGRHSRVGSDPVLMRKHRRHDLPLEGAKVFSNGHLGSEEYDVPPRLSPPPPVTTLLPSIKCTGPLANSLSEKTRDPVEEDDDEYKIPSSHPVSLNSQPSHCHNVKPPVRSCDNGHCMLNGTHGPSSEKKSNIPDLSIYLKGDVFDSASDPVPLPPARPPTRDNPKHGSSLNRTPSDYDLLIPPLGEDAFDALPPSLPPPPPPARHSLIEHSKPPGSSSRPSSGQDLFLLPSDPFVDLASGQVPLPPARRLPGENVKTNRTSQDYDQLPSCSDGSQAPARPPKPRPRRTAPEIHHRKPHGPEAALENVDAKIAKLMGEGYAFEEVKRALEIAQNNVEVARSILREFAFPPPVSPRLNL
IC50 (Cbl-b) [nM],EC50 (Jurkat cells; [1]) [nM],SMILES,EC50 (Jurkat cells; Jurkat) [nM]
100 to 1000,> 5000,"Cn1ccnc1-c1cc(C#N)ccc1-c1cc(NC(=O)c2cc(CO)cn(C3CC3)c2=O)nc(C2CC2)c1 (single isomer, unassigned) [Example 37, N-{4-[4-cyano-2-(1-methyl-2-imidazolyl)phenyl]-6-cyclopropyl-2-pyridyl}-1-cyclopropyl-5-(hydroxymethyl)-2-oxo-1,2-dihydronicotinamide]",–
< 100,< 100,"COCCNCc1cc(C(=O)Nc2cc(-c3ccc(C#N)cc3-c3ncoc3C)cc(C3CC3)n2)c(=O)n(C2CC2)c1 (single isomer, unassigned) [Example 50, N-{4-[4-cyano-2-(5-methyl-1,3-oxazol-4-yl)phenyl]-6-cyclopropyl-2-pyridyl}-1-cyclopropyl-5-[(2-methoxyethylamino)methyl]-2-oxo-1,2-dihydronicotinamide]",–
100 to 1000,1000 to 5000,"COCCNCc1cc(C(=O)Nc2cc(-c3ccc(C(=O)OC)cc3-c3ncoc3C)cc(C3CC3)n2)c(=O)n(C2CC2)c1 (single isomer, unassigned) [Example 51, methyl 4-(6-cyclopropyl-2-{1-cyclopropyl-5-[(2-methoxyethylamino)methyl]-2-oxo-1,2-dihydronicotinoylamino}-4-pyridyl)-3-(5-methyl-1,3-oxazol-4-yl)benzoate]",–
< 100,< 100,"O=C(Nc1cc(-c2ccc(OC(F)F)cc2C(=O)N2CC(F)(F)C2)cc(C2CC2)n1)c1cc(CNCC2CCCO2)cn(C2CC2)c1=O (stereo in doubt) [Example 84, N-(6-cyclopropyl-4-{2-[(3,3-difluoro-1-azetidinyl)carbonyl]-4-difluoromethoxyphenyl}-2-pyridyl)-5-[({[(R)-tetrahydro-2-furyl]methyl}amino)methyl]-1-cyclopropyl-2-oxo-1,2-dihydronicotinamide]",–
< 100,< 100,"C[C@H]1CCCN(Cc2cc(C(=O)Nc3cc(-c4ccc(F)cc4-c4nncn4C)cc(C4CC4)n3)c(=O)n(C3CC3)c2)C1 [Example 2, 1-Cyclopropyl-N-[6-cyclopropyl-4-[4-fluoro-2-(4-methyl-1,2,4-triazol-3-yl)phenyl]pyridin-2-yl]-5-[[(3S)-3-methylpiperidin-1-yl]methyl]-2-oxopyridine-3-carboxamide]",–
< 100,< 100,"COCCNCc1cc(C(=O)Nc2cc(-c3ccc(C#N)cc3-c3nncn3C)cc(C3CC3)n2)c(=O)n(C2CC2)c1 [Example 3, N-[4-[4-cyano-2-(4-methyl-1,2,4-triazol-3-yl)phenyl]-6-cyclopropylpyridin-2-yl]-1-cyclopropyl-5-[(2-methoxyethylamino)methyl]-2-oxopyridine-3-carboxamide]",–
< 100,< 100,"COCCNCc1cc(C(=O)Nc2cc(-c3ccc(F)cc3-c3nncn3C)cc(C3CC3)n2)c(=O)n(C2CC2)c1 [Example 4, 1-cyclopropyl-N-[6-cyclopropyl-4-[4-fluoro-2-(4-methyl-1,2,4-triazol-3-yl)phenyl]pyridin-2-yl]-5-[(2-methoxyethylamino)methyl]-2-oxopyridine-3-carboxamide]",–
< 100,< 100,"CCOc1cc(-c2ccc(F)cc2-c2nncn2C)cc(NC(=O)c2cc(CNCCOC)cn(C3CC3)c2=O)n1 [Example 5, 1-cyclopropyl-N-[6-ethoxy-4-[4-fluoro-2-(4-methyl-1,2,4-triazol-3-yl)phenyl]pyridin-2-yl]-5-[(2-methoxyethylamino)methyl]-2-oxopyridine-3-carboxamide]",–
< 100,1000 to 5000,"COCCN(C)Cc1cc(C(=O)Nc2cc(-c3ccc(F)cc3-c3nncn3C)cc(C3CC3)n2)c(=O)n(C2CC2)c1 [Example 6, N-{6-cyclopropyl-4-[4-fluoro-2-(4-methyl-4H-1,2,4-triazol-3-yl)phenyl]-2-pyridyl}-1-cyclopropyl-5-{[(2-methoxyethyl)-N-methylamino]methyl}-2-oxo-1,2-dihydronicotinamide]",–
< 100,< 100,"C[C@H]1CCCN(Cc2cc(C(=O)Nc3cc(-c4ccc(C#N)cc4-c4nncn4C(F)F)cc(C4CC4)n3)c(=O)n(C3CC3)c2)C1 [Example 7, N-(4-{4-cyano-2-[4-(difluoromethyl)-4H-1,2,4-triazol-3-yl]phenyl}-6-cyclopropyl-2-pyridyl)-5-{[(S)-3-methyl-1-piperidyl]methyl}-1-cyclopropyl-2-oxo-1,2-dihydronicotinamide]",–
< 100,100 to 1000,"C[C@H]1CCCN(Cc2cc(C(=O)Nc3cc(-c4ccc(C#N)cc4-c4nncn4C(F)F)cc(N)n3)c(=O)n(C3CC3)c2)C1 [Example 8, N-(6-amino-4-{4-cyano-2-[4-(difluoromethyl)-4H-1,2,4-triazol-3-yl]phenyl}-2-pyridyl)-5-{[(S)-3-methyl-1-piperidyl]methyl}-1-cyclopropyl-2-oxo-1,2-dihydronicotinamide]",–
< 100,< 100,"N#Cc1ccc(-c2cc(NC(=O)c3cc(CNCCOC(F)(F)F)cn(C4CC4)c3=O)nc(C3CC3)c2)c(-c2nncn2C(F)F)c1 [Example 9, N-(4-{4-cyano-2-[4-(difluoromethyl)-4H-1,2,4-triazol-3-yl]phenyl}-6-cyclopropyl-2-pyridyl)-1-cyclopropyl-2-oxo-5-[(2-trifluoromethoxyethylamino)methyl]-1,2-dihydronicotinamide]",–
< 100,< 100,"CC1(NCc2cc(C(=O)Nc3cc(-c4ccc(C#N)cc4-c4nncn4C(F)F)cc(C4CC4)n3)c(=O)n(C3CC3)c2)CCC1 [Example 10, N-(4-{4-cyano-2-[4-(difluoromethyl)-4H-1,2,4-triazol-3-yl]phenyl}-6-cyclopropyl-2-pyridyl)-1-cyclopropyl-5-[(1-methylcyclobutylamino)methyl]-2-oxo-1,2-dihydronicotinamide]",–
< 100,100 to 1000,"N#Cc1ccc(-c2cc(NC(=O)c3cc(CN4C[C@H]5CC[C@@H]4C5)cn(C4CC4)c3=O)nc(C3CC3)c2)c(-c2nncn2C(F)F)c1 [Example 11, N-(4-{4-cyano-2-[4-(difluoromethyl)-4H-1,2,4-triazol-3-yl]phenyl}-6-cyclopropyl-2-pyridyl)-5-({(1R,4S)-2-azabicyclo[2.2.1]hept-2-yl}methyl)-1-cyclopropyl-2-oxo-1,2-dihydronicotinamide]",–
< 100,100 to 1000,"COCC1(NCc2cc(C(=O)Nc3cc(-c4ccc(C#N)cc4-c4nncn4C(F)F)cc(C4CC4)n3)c(=O)n(C3CC3)c2)CCC1 [Example 12, N-(4-{4-cyano-2-[4-(difluoromethyl)-4H-1,2,4-triazol-3-yl]phenyl}-6-cyclopropyl-2-pyridyl)-1-cyclopropyl-5-{[1-(methoxymethyl)cyclobutylamino]methyl}-2-oxo-1,2-dihydronicotinamide]",–
< 100,< 100,"COCCNCc1cc(C(=O)Nc2cc(-c3ccc(C#N)cc3-c3nncn3C(F)F)cc(C3CC3)n2)c(=O)n(C2CC2)c1 [Example 14, N-(4-{4-cyano-2-[4-(difluoromethyl)-4H-1,2,4-triazol-3-yl]phenyl}-6-cyclopropyl-2-pyridyl)-1-cyclopropyl-5-[(2-methoxyethylamino)methyl]-2-oxo-1,2-dihydronicotinamide]",–
< 100,< 100,"Cn1cnnc1-c1cc(F)ccc1-c1cc(NC(=O)c2cc(CNCCC(F)(F)F)cn(C3CC3)c2=O)nc(C2CC2)c1 [Example 15, N-{6-cyclopropyl-4-[4-fluoro-2-(4-methyl-4H-1,2,4-triazol-3-yl)phenyl]-2-pyridyl}-1-cyclopropyl-2-oxo-5-[(3,3,3-trifluoropropylamino)methyl]-1,2-dihydronicotinamide]",–
< 100,100 to 1000,"CO[C@H]1CCN(Cc2cc(C(=O)Nc3cc(-c4ccc(F)cc4-c4nncn4C)cc(C4CC4)n3)c(=O)n(C3CC3)c2)C1 [Example 16, N-{6-cyclopropyl-4-[4-fluoro-2-(4-methyl-4H-1,2,4-triazol-3-yl)phenyl]-2-pyridyl}-5-{[(S)-3-methoxy-1-pyrrolidinyl]methyl}-1-cyclopropyl-2-oxo-1,2-dihydronicotinamide]",–
< 100,< 100,"CO[C@@H](C)CNCc1cc(C(=O)Nc2cc(-c3ccc(F)cc3-c3nncn3C)cc(C3CC3)n2)c(=O)n(C2CC2)c1 [Example 17, N-{6-cyclopropyl-4-[4-fluoro-2-(4-methyl-4H-1,2,4-triazol-3-yl)phenyl]-2-pyridyl}-5-{[(S)-2-methoxypropylamino]methyl}-1-cyclopropyl-2-oxo-1,2-dihydronicotinamide]",–

SMILES,IC50 (Cbl-b) [nM],EC50 (Jurkat cells; [1]) [nM],EC50 (Jurkat cells; Jurkat) [nM]
"C[C@H]1CCCN(Cc2cc(C(=O)Nc3cc(-c4ccc(C#N)cc4-c4nncn4C)cc(C4CC4)n3)c(=O)n(C3CC3)c2)C1 [Example 1, N-{4-[4-cyano-2-(4-methyl-4H-1,2,4-triazol-3-yl)phenyl]-6-cyclopropyl-2-pyridyl}-5-{[(S)-3-methyl-1-piperidyl]methyl}-1-cyclopropyl-2-oxo-1,2-dihydronicotinamide]",< 100,–,< 100
